Results as given in patent publication US11440923B2, “Substituted macrocyclic indole derivatives” (Bayer Aktiengesellschaft, priority 2017, dated 2022).
Counter-ions that a name gives are not always drawn. Like-named read-outs stand apart in the source and are kept apart here.

Assays:
[1] = system: AMO-1 cells; experiment: Antiproliferation assay AMO-1 (Assay 7); format: cell-based
Outline: (§1)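 CTG luminescence readout; cells plated, overnight at 37 °C, then 72 h compound treatment. Time-zero plate read in parallel. IC50 from day 0 and DMSO-normalised signal.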

[2] = system: HMC-1-8 cells; experiment: Antiproliferation assay HMC-1-8 (Assay 7); format: cell-based
Outline: as §1

[3] = system: SUDHL10 cells; experiment: Induction of caspase-3/7 activity in SUDHL10 cells (Assay 4); format: cell-based
Outline: (§2)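 Read-out: Caspase-Glo 3/7 luminescence (1 h, 37 °C) after cells, plated overnight, were treated with compounds for 3 h at 37 °C. Signal corrected for cell-free medium background and expressed relative to DMSO control mean.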

[4] = system: SUDHL5 cells; experiment: Antiproliferation assay SUDHL5 (Assay 7); format: cell-based
Outline: as §1

[5] = system: SUDHL5 cells; experiment: Induction of caspase-3/7 activity in SUDHL5 cells (Assay 4); format: cell-based
Outline: as §2

[6] = molecular target: BCL-XL (Homo sapiens (Human), UniProt Q07817); experiment: Protein-protein interaction assay BCL-XL/Bad BH3 peptide (BCL-XL assay, TR-FRET); format: binding; details: read-out: BCL-XL Assay IC50 (median)
Sequence of BCL-XL (Q07817 1-212): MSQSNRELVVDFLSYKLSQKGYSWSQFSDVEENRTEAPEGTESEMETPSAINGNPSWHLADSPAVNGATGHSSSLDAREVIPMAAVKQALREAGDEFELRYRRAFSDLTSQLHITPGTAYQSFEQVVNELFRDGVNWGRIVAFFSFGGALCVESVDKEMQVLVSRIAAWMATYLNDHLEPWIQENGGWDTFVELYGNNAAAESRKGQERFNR
Method: Assay 2 Protein-Protein Interaction Assay: BCL-XL/Bad BH3 Peptide (BCL-XL Assay)
The dose-dependent inhibition by the compounds described in this invention of the interaction between BCL-XL and the BH3 domain of Bad (both human) was determined using a steady state binding competition assay with time-resolved fluorescence energy transfer (TR-FRET) readout. For that purpose BCL-XL (amino acids 1-212, C-terminal fused to a hexahistidine (6×His) tag (SEQ ID 3) and a synthetic Bad BH3-derived peptide of sequence Biotin-PEG2-PEG2-[…]-Nle-[…]-amide (SEQ ID 4) served as protein receptor and tracer ligand respectively. The recombinant BCL-XL protein (expressed in E. coli) was purchased from BPS Bioscience (San Diego, Calif., USA). The Bad BH3-derived peptide can be obtained from e.g. Biosyntan (Berlin, Germany).
In the assay 11 different concentrations of each compound (0.1 nM, 0.33 nM, 1.1 nM, 3.8 nM, 13 nM, 44 nM, 0.15 μM, 0.51 μM, 1.7 μM, 5.9 μM and 20 μM) were typically measured as duplicates in the same microtiter plate. For that, 100-fold concentrated DMSO solutions were prepared by serial dilutions (1:3.4) of a 2 mM stock solution in a clear, 384-well microtiter plate (Greiner Bio-One, Frickenhausen, Germany). From there, 50 nl were transferred in a dark test plate (Greiner Bio-One, Frickenhausen, Germany). The assay was initiated by addition of 2 μL of a 2,5-fold concentrated His-BCL-XL solution (usually for a 1 nM end concentration in 5 μL reaction volume) in aqueous assay buffer [50 mM Tris/HCl pH 7, 100 mM sodium chloride (NaCl), 50 mM potassium fluoride (KF), 0.005% Tween-20, 2 mM DTT, 0.1% bovine gamma globulin (BGG)] to the compounds in the assay plate. This was followed by a 10-minute incubation step at 22° C. for pre-equilibration of the putative complex between His-BCL-XL and the compounds. After that, 3 μL of a 1.67-fold concentrated solution (in assay buffer) consisting of Bad BH3-derived peptide (1 nM end concentration) and TR-FRET detection reagents [1.67 nM anti-His-Eu cryptate and 1.67 nM streptavidin-XL665 (both from Cisbio Bioassays, Codolet, France)], were added.
The mixture was incubated in the dark for one hour at 22° C. and then overnight at 4° C. The formation of BCL-XL/Bad complexes was determined by measuring the resonance energy transfer of the anti-His- Eu-cryptate antibody to the streptavidin-XL665 present in the reaction. For that purpose, the fluorescence emission at 620 nm and 665 nm after excitation at 330-350 nm was measured in a TR-FRET measuring instrument, for instance a Rubystar or a Pherastar (both from BMG Lab Technologies, Offenburg, Germany) or a Viewlux (Perkin-Elmer). The ratio of the emission at 665 nm and at 622 nm was used as indicator of the amount of BCL-XL/Bad complexes present.
The resulting data (ratio) were normalized, taking 0% inhibition as the mean value of control measurements (usually 32 data points) where all reagents were included. In this case 50 nl DMSO were used instead of compounds. […] IC50 values were determined by regression analysis based on a 4 parameter equation (minimum, maximum, IC50, Hill; Y=Max+(Min−Max)/(1+(X/IC50)^Hill) using the Screener Software (Genedata).

[7] = read-out: Antiproli AMO-1 IC50 median; 72 h, CellTiter-Glo
[8] = read-out: Caspase SUDHL10 EC50 (median); caspase-3/7 induction, 3 h
[9] = read-out: Antiproli SUDHL5 IC50 (median); 72 h, CellTiter-Glo
[10] = read-out: Caspase SUDHL5 EC50 (median); caspase-3/7 induction, 3 h
[11] = read-out: Antiproli HMC-1-8 IC50 median; 72 h, CellTiter-Glo
[12] = 72 h, CellTiter-Glo; read-out: Antiproli AMO-1 IC50 median
[13] = 72 h, CellTiter-Glo; read-out: Antiproli HMC-1-8 IC50 median
[14] = caspase-3/7 induction, 3 h; read-out: Caspase SUDHL10 EC50 (median)
[15] = 72 h, CellTiter-Glo; read-out: Antiproli SUDHL5 IC50 (median)
[16] = caspase-3/7 induction, 3 h; read-out: Caspase SUDHL5 EC50 (median)

EC50 [3, 14] | IC50 [4, 15] | EC50 [5, 16] | SMILES | IC50 [1, 7] | EC50 [3, 8] | IC50 [2, 11] | IC50 [1, 12] | IC50 [2, 13] | also measured
 |  |  | CCc1c2c(nn1C)C(CCN1CCOCC1)OCCCCn1c(C(=O)O)c(CCCOc3cccc4ccccc34)c3ccc(F)c-2c31 (single isomer, unassigned; enantiomer 1) [Example 11, 3-ethyl-4-fluoro-2-methyl-15-[2-(morpholin-4-yl)ethyl]-7-{3-[(naphthalen-1-yl)oxy]propyl}-2,10,11,12,13,15-hexahydropyrazolo[4′,3′:9,10][1,6]oxazacycloundecino[8,7,6-hi]indole-8-carboxylic Acid—N-ethylethanamine Salt (Enantiomer 1)] | 0.159 µM | 0.19 µM |  |  |  | IC50 ([2]; 72 h, read-out: Antiproli HMC-1-8 IC50 median, 72 h, CellTiter-Glo): 1.03 µM; IC50 [4, 9]: 0.075 µM; EC50 [5, 10]: 0.097 µM
 |  |  | CCc1c2c(nn1C)C(CCN1CCN(C)CC1)OCCCCn1c(C(=O)O)c(CCCOc3cccc4cc(F)ccc34)c3ccc(Cl)c-2c31 (racemic) [Example 68, 4-chloro-3-ethyl-7-{3-[(6-fluoronaphthalen-1-yl)oxy]propyl}-2-methyl-(15-rac)-[2-(4-methylpiperazin-1-yl)ethyl]-2,10,11,12,13,15-hexahydropyrazolo[4′,3′:9,10][1,6]oxazacycloundecino[8,7,6-hi]indole-8-carboxylic Acid—N-ethylethanamine Salt (Mixture 1 of Stereoisomers)] | 0.772 µM | 0.082 µM | 2.62 µM |  |  | IC50 [6]: > 20 µM
 |  |  | CCc1c2c(nn1C)C(CCC1CCOCC1)OCCCCn1c(C(=O)O)c(CCCOc3cccc4cc(F)ccc34)c3ccc(Cl)c-2c31 (single isomer, unassigned; enantiomer 1) [Example 63, (+)-4-chloro-3-ethyl-7-{3-[(6-fluoronaphthalen-1-yl)oxy]propyl}-2-methyl-15-[2-(oxan-4-yl)ethyl]-2,10,11,12,13,15-hexahydropyrazolo[4′,3′:9,10][1,6]oxazacycloundecino[8,7,6-hi]indole-8-carboxylic Acid—N-ethylethanamine Salt (Enantiomer 1)] | 0.02 µM | 0.053 µM | 0.351 µM |  |  | IC50 [4, 9]: 0.042 µM; EC50 [5, 10]: 0.035 µM
0.13 µM | 0.34 µM | 0.33 µM | CCc1c2c(nn1C)C1CCCN1CCCCn1c(C(=O)O)c(CCCOc3cccc4cc(F)ccc34)c3ccc(Cl)c-2c31 (single isomer, unassigned; (+)) [Example 105, (+)-17-chloro-1-ethyl-14-{3-[(6-fluoronaphthalen-1-yl)oxy]propyl}-2-methyl-3b,4,5,6,8,9,10,11-octahydro-2H-pyrazolo[3′,4′:8,9]pyrrolo[1′,2′:6,7][1,6]diazacycloundecino[10,11,1-hi]indole-13-carboxylic Acid] |  |  |  | 0.203 µM | 2.66 µM | 
0.0099 µM | 0.016 µM | 0.013 µM | CCc1c2c(nn1C)C(CCN1CC(F)(F)C1)OCCCCn1c(C(=O)O)c(CCCOc3cccc4cc(F)ccc34)c3ccc(Cl)c-2c31 (single isomer, unassigned; (+)) [Example 78, (+)-4-chloro-15-[2-(3,3-difluoroazetidin-1-yl)ethyl]-3-ethyl-7-{3-[(6-fluoronaphthalen-1-yl)oxy]propyl}-2-methyl-2,10,11,12,13,15-hexahydropyrazolo[4′,3′:9,10][1,6]oxazacycloundecino[8,7,6-hi]indole-8-carboxylic Acid—N-ethylethanamine Salt] |  |  |  | 0.0112 µM | 0.563 µM | 
0.0066 µM | 0.011 µM | 0.0097 µM | CCc1c2c(nn1C)C(CCC(C)(C)O)OCCCCn1c(C(=O)O)c(CCCOc3cccc4cc(F)ccc34)c3ccc(Cl)c-2c31 (single isomer, unassigned; enantiomer 1) [Example 75, (+)-4-chloro-3-ethyl-7-{3-[(6-fluoronaphthalen-1-yl)oxy]propyl}-15-(3-hydroxy-3-methylbutyl)-2-methyl-2,10,11,12,13,15-hexahydropyrazolo[4′,3′:9,10][1,6]oxazacycloundecino[8,7,6-hi]indole-8-carboxylic Acid—N-ethylethanamine Salt (Enantiomer 1)] |  |  |  | 0.0138 µM | 0.159 µM | 
 |  |  | CCc1c2c(nn1C)C1CCCCN1CCCCn1c(C(=O)O)c(CCCOc3cccc4ccccc34)c3ccc(Cl)c-2c31 (racemic) [Example 102, (rac)-18-chloro-1-ethyl-2-methyl-15-[3-(1-naphthyloxy)propyl]-2,3b,4,5,6,7,9,10,11,12-decahydropyrazolo[3′,4′:8,9]pyrido[1′,2′:6,7][1,6]diazacycloundecino[10,11,1-hi]indole-14-carboxylic Acid] |  |  |  |  |  | IC50 ([1]; Homo sapiens, AMO1, 72 h, 72 h, CellTiter-Glo; read-out: Antiproli AMO-1 IC50 median): 0.522 µM; IC50 ([2]; 72 h, CellTiter-Glo, read-out: Antiproli HMC-1-8 IC50 median): 7.47 µM; EC50 ([3]; Homo sapiens, SU-DHL10, 3 h, caspase-3/7 induction, 3 h; read-out: Caspase SUDHL10 EC50 (median)): 1 µM; IC50 ([4]; Homo sapiens, SU-DHL-5, 72 h, 72 h, CellTiter-Glo; read-out: Antiproli SUDHL5 IC50 (median)): 1.4 µM; EC50 ([5]; Homo sapiens, SU-DHL-5, 3 h, caspase-3/7 induction, 3 h; read-out: Caspase SUDHL5 EC50 (median)): 0.77 µM
 |  |  | CCc1c2c(nn1C)C(CCN1CCN(C)CC1)OCCCCn1c(C(=O)O)c(CCCOc3cccc4cc(F)ccc34)c3ccc(Cl)c-2c31 (racemic) [Example 71, (rac)-4-chloro-3-ethyl-7-{3-[(6-fluoronaphthalen-1-yl)oxy]propyl}-2-methyl-(15-rac)-[2-(4-methylpiperazin-1-yl)ethyl]-2,10,11,12,13,15-hexahydropyrazolo[4′,3′:9,10][1,6]oxazacycloundecino[8,7,6-hi]indole-8-carboxylic Acid—N-ethylethanamine Salt (Mixture 2 Od Stereoisomers)] | 0.209 µM | 0.041 µM | 1.37 µM |  |  | IC50 [6]: > 20 µM

SMILES | EC50 [3, 14] | IC50 [4, 15] | EC50 [5, 16] | IC50 [1, 7] | EC50 [3, 8] | IC50 [2, 11] | IC50 [1, 12] | IC50 [2, 13] | also measured
CCc1c2c(nn1C)C(CCC1CCOCC1)OCCCCn1c(C(=O)O)c(CCCOc3cccc4cc(F)ccc34)c3ccc(Cl)c-2c31 (single isomer, unassigned; enantiomer 1) [Example 61, 4-chloro-3-ethyl-7-{3-[(6-fluoronaphthalen-1-yl)oxy]propyl}-2-methyl-15-[2-(oxan-4-yl)ethyl]-2,10,11,12,13,15-hexahydropyrazolo[4′,3′:9,10][1,6]oxazacycloundecino[8,7,6-hi]indole-8-carboxylic Acid (Enantiomer 1)] | 0.023 µM | 0.024 µM | 0.031 µM |  |  |  | 0.0225 µM | 0.186 µM | 
